For eight molecules, IC50 results are on record in US20260083750A1, “SMALL MOLECULE INHIBITORS OF KRAS PROTEINS” (MERCK SHARP & DOHME LLC, priority 2022, published 2026).

The IC50 is the midpoint of a concentration-inhibition curve.

Experiment [1] has as its system PANC08.13 cells (homozygous KRAS-G12D activating mutation). The experiment in a line: Cellular phospho-ERK assay in G12D cell line. The class given is cell-based. Particulars: Homo sapiens, PANC-08-13, 2 hours compound incubation, ratio of p-ERK vs. total ERK, read-out: PANC 0813 pERK IC50. In short, it runs like this: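 Cells (10,000-15,000/well) were seeded overnight, then treated for 2 h at 37 °C with a 10-point 1:3 titration from 30 μM final. Lysates were assayed by AlphaLISA SureFire Ultra multiplex, with the p-ERK/total-ERK ratio as read-out; IC50 came from a 4-parameter logistic fit.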

A further experiment has as its target NRAS (Homo sapiens, UniProt P01111). The experiment in a line: SOS-catalyzed nucleotide exchange assay (Procedure A, TR-FRET). The class given is biochemical. To be noted: 60 min preincubation, SOS + GTP, read-out: NRAS GNE IC50. In short, it runs like this:
(§1)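 Biotinylated WT-sequence HRAS or NRAS (1.25 nM final) loaded with Bodipy-GDP plus Tb-streptavidin, preincubated 60 min with compound (10-point, 3-fold). Exchange started with human SOS (40 nM) and 3 mM GTP, 60 min at room temperature, pH 7.5 Mg buffer. TR-FRET 520/495 ratio normalised to DMSO and saturating inhibitor, four-parameter fit.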
On the technique in general: Time-resolved FRET reads energy transfer from a long-lived donor to a nearby acceptor.

A further experiment addresses HRAS (Homo sapiens, UniProt P01112). Described as above. The format is biochemical. Particulars: 60 min preincubation, SOS + GTP, read-out: HRAS GNE IC50. In short, it runs like this: as §1
A further experiment concerns the target T1, KRAS-G12D (Homo sapiens, UniProt P01116, G12D).
T1 construct: N-terminal biotin-acceptor peptide […]
The experiment is described as above. The class given is biochemical. Particulars: 60 min preincubation, SOS + GTP, read-out: KRAS G12D GNE IC50. A digest of the protocol: (§2)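 Preformed biotinylated RAS–Bodipy-GDP/Tb-streptavidin complex preincubated with compound 60 min at room temperature, then SOS plus GTP (3 mM final) added. Exchange times: G13D 30 min, G12C/D 60 min, G12V 90 min. Final RAS/SOS: G12C 3 nM/40 nM, G12D 1 nM/40 nM, G12V 1.25 nM/160 nM, G13D 1.25 nM/0 nM. TR-FRET 520/495 ratio, four-parameter fit.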

The target in experiment [2] is T2, KRAS-G12C (C51S/C80L/C118S) (Homo sapiens, UniProt P01116, C118S/C51S/C80L/G12C).
T2 construct: N-terminal biotin-acceptor peptide […]
T2 sequence (P01116 with tags, fused parts or gaps isoform P01116-2 G12C/C51S/C80L/C118S): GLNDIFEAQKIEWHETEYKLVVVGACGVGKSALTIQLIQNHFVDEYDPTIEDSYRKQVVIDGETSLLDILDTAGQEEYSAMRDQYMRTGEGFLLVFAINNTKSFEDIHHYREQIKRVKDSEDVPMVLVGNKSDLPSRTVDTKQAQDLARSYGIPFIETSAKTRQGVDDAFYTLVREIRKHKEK
The description is as above. The class given is biochemical. Particulars: 60 min preincubation, SOS + GTP, read-out: KRAS G12C GNE IC50. A digest of the protocol:
as §2

Another experiment addresses T3, KRAS-G13D (Homo sapiens, UniProt P01116, G13D).
T3 construct: N-terminal biotin-acceptor peptide […]
The description is as above. The class given is biochemical. To be noted: 60 min preincubation, GTP, read-out: KRAS G13D GNE IC50. A digest of the protocol:
as §2

The target in another experiment is T4, KRAS-G12V (Homo sapiens, UniProt P01116, G12V).
T4 construct: N-terminal biotin-acceptor peptide […]
T4 sequence (P01116 with tags, fused parts or gaps isoform P01116-2 G12V): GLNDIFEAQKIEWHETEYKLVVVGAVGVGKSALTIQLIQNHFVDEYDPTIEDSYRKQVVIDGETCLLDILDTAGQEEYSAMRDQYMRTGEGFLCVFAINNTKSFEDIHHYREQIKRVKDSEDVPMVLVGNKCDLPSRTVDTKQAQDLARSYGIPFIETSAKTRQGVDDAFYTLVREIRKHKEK
The experiment is described as above. To be noted: 60 min preincubation, SOS + GTP, read-out: KRAS G12V GNE IC50. The class given is biochemical. A digest of the protocol:
as §2

Experiment [3] relates to SW620 cells (homozygous KRAS-G12V activating mutation). The experiment in a line: Cellular phospho-ERK assay in G12V cell line. The format is cell-based. Particulars: Homo sapiens, SW-620, 2 hours compound incubation, ratio of p-ERK vs. total ERK, read-out: SW620 pERK IC50. The procedure:
Procedure for Cellular Phospho-ERK Assay in G12D and G12V Cell Lines
PANC08.13 cells (ATCC® CRL-2551™), containing homozygous KRAS-G12D activating mutation, were cultured in growth medium made of RPMI1640-GlutaMAX™—I (ThermoFisher Scientific 61870) containing 15% heat inactivated fetal bovine serum (ThermoFisher Scientific 10091148)). SW620 cells (ATCC® […]), containing homozygous KRAS-G12V activating mutation, were cultured in growth medium that contains RPMI 1640-GlutaMAX™—I (ThermoFisher Scientific 61870) containing 10% heat inactivated fetal bovine serum (ThermoFisher Scientific 10091148).
Cells for the assay were harvested in growth medium after TrypLE (ThermoFisher scientific 12604021) digestion and were seeded in a 384-well collagen coated cell culture plate (Corning 356702) at a density of 10,000-15,000 cells/20 uL/well, and incubated at 37° C., 5% CO2 overnight. The compound (with 10 mM stock concentration) dose-response titrations were prepared [30 μM final ERK detection assay concentration and 1:3 dilutions, 10-point dose response] and appropriate amounts (270 nL) of test compounds were dispensed in a 384-well intermediate plate using an Echo 550 liquid handler. 30 uL/well of RPMI medium 1640-GlutaMAX™—I was added to the intermediate plate and the contents of the intermediate plate (10 uL/well) were then transferred to the 384-well collagen coated cell culture plate, which was incubated at 37° C., 5% CO2 for 2 hours. After removal of medium from the collagen coated cell culture plate, cells were lysed in lysis buffer from Alpha SureFire® Ultra™ Multiplex p-ERK and total ERK assay kit (PerkinElmer MPSU-PTERK) containing Halt™ Protease and Phosphatase inhibitor cocktail (ThermoFisher Scientific 78446) at room temperature with constant shaking at 300 rpm for 30 minutes. The cell lysates were then transferred to an OptiPlate-384 plate (PerkinElmer 6005620), and the phosphorylation of ERK (p-ERK) and total ERK levels were detected by Alpha SureFire® Ultra™ Multiplex p-EEK kit and total ERK assay kit (PerkinElmer MPSU-PTERK) following the manufacturer's protocol. Assay plates were read on a EnVision Multimode Plate Reader (PerkinElmer), and the ratio of p-ERK vs. total ERK in each well was used as the final readout. Dose response curves were analyzed using a 4-parameter logistic model to calculate IC50 values using Spotfire software.

Chain of HRAS (P01112 with tags, fused parts or gaps): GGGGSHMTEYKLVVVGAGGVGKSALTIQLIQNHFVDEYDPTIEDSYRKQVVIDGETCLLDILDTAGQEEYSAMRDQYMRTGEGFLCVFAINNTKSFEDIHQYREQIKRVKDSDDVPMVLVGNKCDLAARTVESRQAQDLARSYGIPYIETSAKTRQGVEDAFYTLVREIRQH
T1 sequence (P01116 with tags, fused parts or gaps isoform P01116-2 G12D): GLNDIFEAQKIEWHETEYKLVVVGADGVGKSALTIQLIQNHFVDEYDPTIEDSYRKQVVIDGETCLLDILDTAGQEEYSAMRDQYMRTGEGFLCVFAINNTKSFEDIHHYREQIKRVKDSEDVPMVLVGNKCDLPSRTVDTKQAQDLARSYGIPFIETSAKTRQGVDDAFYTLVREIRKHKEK
T3 sequence (P01116 with tags, fused parts or gaps isoform P01116-2 G13D): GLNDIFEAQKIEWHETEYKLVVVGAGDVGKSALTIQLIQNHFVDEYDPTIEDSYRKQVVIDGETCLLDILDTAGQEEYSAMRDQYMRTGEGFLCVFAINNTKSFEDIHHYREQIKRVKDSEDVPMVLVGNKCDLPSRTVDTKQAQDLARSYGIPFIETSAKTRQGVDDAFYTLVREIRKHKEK
Chain of NRAS (P01111 with tags, fused parts or gaps): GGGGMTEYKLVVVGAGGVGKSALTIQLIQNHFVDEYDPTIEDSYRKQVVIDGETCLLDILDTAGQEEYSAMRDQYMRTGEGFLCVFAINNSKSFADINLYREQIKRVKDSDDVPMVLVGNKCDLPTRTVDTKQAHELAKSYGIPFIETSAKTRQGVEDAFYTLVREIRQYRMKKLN

`N#Cc1c(N)sc2c(F)ccc(-c3c(Cl)cc4c(N5CCOCC(F)C5)nc(OC[C@@]56CCCN5C[C@H](F)C6)nc4c3F)c12` (stereo partly drawn) [compound 11, 2-amino-4-(6-chloro-8-fluoro-4-(6-fluoro-1,4-oxazepan-4-yl)-2-(((2R,7aS)-2-fluorotetrahydro-1H-pyrrolizin-7a(5H)-yl)methoxy)quinazo-lin-7-yl)-7-fluorobenzo[b]thio-phene-3-carbonitrile]: the IC50 is 0.0399 µM in experiment [1]; above 11.1 µM on NRAS; above 11.1 µM at HRAS; 0.00827 µM at KRAS-G12D; 0.0182 µM in experiment [2]; 0.00685 µM at KRAS-G13D. Also, the IC50 stood at 0.0064 µM on KRAS-G12V and 0.0219 µM in experiment [3].

Turning to `N#Cc1c(N)sc2c(F)ccc(-c3c(Cl)cc4c(N5CCOCC(F)(F)C5)nc(OC[C@@]56CCCN5C[C@H](F)C6)nc4c3F)c12` [compound 12, 2-amino-4-(6-chloro-4-(6,6-difluoro-1,4-oxazepan-4-yl)-8-fluoro-2-(((2R,7aS)-2-fluorotetrahydro-1H-pyrrolizin-7a(5H)-yl)methoxy)quinazo-lin-7-yl)-7-fluorobenzo[b]thio-phene-3-carbonitrile], the IC50 was 0.0754 µM in experiment [1]; above 11.1 µM on NRAS; above 11.1 µM on HRAS; 0.0342 µM at KRAS-G12D; 0.0195 µM in experiment [2]; 0.0129 µM at KRAS-G13D. For the same molecule, the half-inhibitory concentration (IC50) worked out at 0.0116 µM on KRAS-G12V and 0.0329 µM in experiment [3].

Consider `CC1(F)COCCN(c2nc(OC[C@@]34CCCN3C[C@H](F)C4)nc3c(F)c(-c4ccc(F)c5sc(N)c(C#N)c45)c(Cl)cc23)C1` (stereo partly drawn) [compound 13, 2-amino-4-(6-chloro-8-fluoro-4-(6-fluoro-6-methyl-1,4-oxazepan-4-yl)-2-(((2R,7aS)-2-fluorotetrahydro-1H-pyrrolizin-7a(5H)-yl)methoxy)quinazo-lin-7-yl)-7-fluorobenzo[b]thio-phene-3-carbonitrile], for which the IC50 in experiment [1] was 0.208 µM; on NRAS it was above 11.1 µM; on HRAS, above 11.1 µM; on KRAS-G12D, 0.0467 µM; in experiment [2], 0.0322 µM; on KRAS-G13D, 0.0219 µM. For the same molecule, the results for the 50% inhibitory concentration (IC50) (on KRAS-G12V; in experiment [3]) were 0.0104 µM and 0.152 µM, respectively.

Take `CC(C)(C)NC[C@@]1(COc2nc(N3CCCOCC3)c3cc(Cl)c(-c4ccc(F)c5sc(N)c(C#N)c45)c(F)c3n2)CC1(F)F` [compound 25, 2-amino-4-(2-(((R)-1-((tert-butylamino)methyl)-2,2-difluorocyclopropyl)methoxy)-6-chloro-8-fluoro-4-(1,4-oxazepan-4-yl)quinazolin-7-yl)-7-fluorobenzo[b]thiophene-3-carbonitrile]: the IC50 in experiment [1] was 1.31 µM; at NRAS, above 11.1 µM; at HRAS, above 11.1 µM; on KRAS-G12D, 0.247 µM; in experiment [2], 0.0286 µM; at KRAS-G13D, 0.0529 µM. In addition, the IC50 at KRAS-G12V was 0.0177 µM; in experiment [3] it was 0.407 µM.

`CC(C)NC[C@@]1(COc2nc(N3CCCOCC3)c3cc(Cl)c(-c4ccc(F)c5sc(N)c(C#N)c45)c(F)c3n2)CC1(F)F` [compound 26, 2-amino-4-(6-chloro-2-(((R)-2,2-difluoro-1-((isopropylamino)meth-yl)cyclopropyl)meth-oxy)-8-fluoro-4-(1,4-oxazepan-4-yl)quinazolin-7-yl)-7-fluorobenzo[b]thiophene-3-carbonitrile]: the IC50 was 0.992 µM in experiment [1]; above 11.1 µM on NRAS; above 11.1 µM on HRAS; 0.177 µM at KRAS-G12D; 0.0549 µM in experiment [2]; 0.0594 µM at KRAS-G13D. Besides, the IC50 at KRAS-G12V worked out at 0.0226 µM; in experiment [3], 0.357 µM.

Consider `CC1(NC[C@@]2(COc3nc(N4CCCOCC4)c4cc(Cl)c(-c5ccc(F)c6sc(N)c(C#N)c56)c(F)c4n3)CC2(F)F)CCC1` [compound 28, 2-amino-4-(6-chloro-2-(((R)-2,2-difluoro-1-(((1-methylcyclobutyl)ami-no)methyl)cyclopropyl)methoxy)-8-fluoro-4-(1,4-oxazepan-4-yl)quinazolin-7-yl)-7-fluorobenzo[b]thiophene-3-carbonitrile], for which the IC50 in experiment [1] is 2.42 µM; at NRAS it was above 11.1 µM; on HRAS, above 11.1 µM; at KRAS-G12D, 1.85 µM; in experiment [2], 0.0782 µM; at KRAS-G13D, 0.255 µM. For the same molecule, the half-inhibitory concentration (IC50) at KRAS-G12V was determined as 0.0995 µM; in experiment [3], 0.867 µM.

Consider `Cc1cc(N)nc(-c2c(Cl)cc3c(N4CCCOCC4)nc(OC[C@@]45CCCN4C[C@H](F)C5)nc3c2F)c1C(F)(F)F` [compound 40, 6-(6-chloro-8-fluoro-2-(((2R,7aS)-2-fluorotetrahydro-1H-pyrrolizin-7a(5H)-yl)methoxy)-4-(1,4-oxazepan-4-yl)quinazolin-7-yl)-4-methyl-5-(trifluoromethyl)pyridin-2-amine], for which the IC50 in experiment [1] is 0.807 µM; on NRAS, above 11.1 µM; on HRAS it was above 11.1 µM; on KRAS-G12D it was 0.351 µM; in experiment [2], 0.0833 µM; at KRAS-G13D, 0.204 µM. Further, the figures for the half-maximal inhibitory concentration (IC50) (at KRAS-G12V; in experiment [3]) were 0.0782 µM and 0.628 µM, respectively.

On to `Cc1cc(N)nc(-c2c(Cl)cc3c(N4CCCOCCC4)nc(OC[C@@]45CCCN4C[C@H](F)C5)nc3c2F)c1C(F)(F)F` [compound 41, 6-(6-chloro-8-fluoro-2-(((2R,7aS)-2-fluorotetrahydro-1H-pyrrolizin-7a(5H)-yl)methoxy)-4-(1,5-oxazocan-5-yl)quinazolin-7-yl)-4-methyl-5-(trifluoromethyl)pyridin-2-amine], for which the IC50 is 0.348 µM in experiment [1]; above 11.1 µM on NRAS; above 11.1 µM on HRAS; 0.125 µM at KRAS-G12D; 0.0565 µM in experiment [2]; 0.0755 µM at KRAS-G13D. For the same molecule, the results for the IC50 (on KRAS-G12V; in experiment [3]) were 0.0464 µM and 0.512 µM, respectively.
